Test results published in patent US4251546A, “Process for killing internal helminths using certain 1,1-bis-(2-substituted-3-nitrophenyl)alkane or alkylene derivatives” (ICI Australia Limited, priority 1977, dated 1981).

Columns and labels:
[1] = test system: sheep liver fluke (Fasciola hepatica); assay: Fluke egg count in faeces and adult fluke count in liver of infected sheep after a single s/c dose (Table 3); assay type: in vivo; details: for POST MORTEM RESULT No. of adult fluke: liver
Experimental: Compositions suitable for use as experimental injectable solutions were prepared by formulating the compounds as solutions of their salts either in water or in a mixture of water and ethylene glycol or water and polyethylene glycol (PEG200).
Compositions prepared by the method of Example 10 were used as a single dose to test sheep infected with sheep liver fluke (Fasciola hepatica). The number of liver fluke eggs in the faeces was measured at the time of treatment and at selected intervals up to 30 days after treatment. The sheep were killed and the number of adult fluke in the liver counted. The amount and structure of the active ingredient in each composition and the results of treatment of a sheep with that composition are given in the Table 3 below. The compositions were administered by sub-cutaneous injection (s/c).

live Fasciola hepatica = assay: Minimum effective concentration against live Fasciola hepatica in Hedon-Fleig medium (Table 4); details: in vitro, assessed 24 hours after treatment, read-out: MINIMUM EFFECTIVE CONCENTRATION (minimum concentration required to kill Fasciola hepatica)
Experimental: The minimum effective concentration of compounds of formula I against live Fasciola hepatica was tested by the direct application of the test compound, in solution, to live Fasciola hepatica in Hedon-Fleig medium. The results are given in Table 4 where the minimum effective concentration (minimum concentration required to kill Fasciola hepatica) was assessed 24 hours after treatment with the test compound.

immature fluke = assay: Effectiveness against immature fluke (Table 3 footnotes); assay type: in vivo, Fasciola hepatica

O=[N+]([O-])c1cc(Br)cc(C(c2cc(Br)cc([N+](=O)[O-])c2O)C(F)(F)F)c1O [Compound 56] was tested, and the “FAECAL EGG COUNT, day 7” value ([1]; single dose 6.0 mg/kg) was 10 Eggs/g faeces, the “FAECAL EGG COUNT, day 14” value ([1]; single dose 6.0 mg/kg) was 0 Eggs/g faeces and the “POST MORTEM RESULT No. of adult fluke” value ([1]; single dose 6.0 mg/kg) was 0. The minimal effective concentration (live Fasciola hepatica) was 1 µg/mL.

O=[N+]([O-])c1cc(Cl)cc(C(c2cc(Cl)cc([N+](=O)[O-])c2O)C(F)(F)F)c1O [Compound 53, 1,1-Bis(5-chloro-2-hydroxy-3-nitrophenyl)-2,2,2-trifluoroethane] was tested, and the “FAECAL EGG COUNT, day 7” value ([1]; single dose 3.0 mg/kg) was 460 Eggs/g faeces, the “FAECAL EGG COUNT, day 14” value ([1]; single dose 3.0 mg/kg) was 0 Eggs/g faeces and the “POST MORTEM RESULT No. of adult fluke” value ([1]; single dose 3.0 mg/kg) was 0. The “FAECAL EGG COUNT, day 7” value ([1]; single dose 6.0 mg/kg) was 0 Eggs/g faeces, the “FAECAL EGG COUNT, day 14” value ([1]; single dose 6.0 mg/kg) was 0 Eggs/g faeces and the “POST MORTEM RESULT No. of adult fluke” value ([1]; single dose 6.0 mg/kg) was 0. For the same compound, the “effective against immature fluke” value (immature fluke; 15 mg/kg) was 97%.

For O=[N+]([O-])c1cc(Cl)cc(C(c2cc(Cl)cc([N+](=O)[O-])c2O)C(F)(F)C(F)(F)F)c1O [Compound 54], the “FAECAL EGG COUNT, day 7” value ([1]; single dose 2.0 mg/kg) was 10 Eggs/g faeces, the “FAECAL EGG COUNT, day 14” value ([1]; single dose 2.0 mg/kg) was 0 Eggs/g faeces and the “POST MORTEM RESULT No. of adult fluke” value ([1]; single dose 2.0 mg/kg) was 0. For the same compound, the “FAECAL EGG COUNT, day 7” value ([1]; single dose 6.0 mg/kg) was 0 Eggs/g faeces, the “FAECAL EGG COUNT, day 14” value ([1]; single dose 6.0 mg/kg) was 0 Eggs/g faeces and the “POST MORTEM RESULT No. of adult fluke” value ([1]; single dose 6.0 mg/kg) was 0. The “effective against immature fluke” value (immature fluke; 15 mg/kg) was 83%.

With O=[N+]([O-])c1cc(Br)cc(C(=C(Cl)Cl)c2cc(Br)cc([N+](=O)[O-])c2O)c1O [Compound 15] the “FAECAL EGG COUNT, day 7” value ([1]; single dose 2.0 mg/kg) was 0 Eggs/g faeces, the “FAECAL EGG COUNT, day 14” value ([1]; single dose 2.0 mg/kg) was 0 Eggs/g faeces and the “POST MORTEM RESULT No. of adult fluke” value ([1]; single dose 2.0 mg/kg) was 0. For the same compound, the “FAECAL EGG COUNT, day 7” value ([1]; single dose 12.5 mg/kg) was 0 Eggs/g faeces, the “FAECAL EGG COUNT, day 14” value ([1]; single dose 12.5 mg/kg) was 0 Eggs/g faeces and the “POST MORTEM RESULT No. of adult fluke” value ([1]; single dose 12.5 mg/kg) was 0. The “effective against immature fluke” value (immature fluke; 10 mg/kg) was 91.4% and the “effective against immature fluke” value (immature fluke; 15 mg/kg) was 94%.

Work on O=[N+]([O-])c1cc(Cl)cc(C(OCCC(c2ccccc2)c2ccccc2)c2cc(Cl)cc([N+](=O)[O-])c2O)c1O [Compound 42] yielded a minimal effective concentration (live Fasciola hepatica) of 1 µg/mL.

Work on O=[N+]([O-])c1cc(Cl)cc(C(Oc2ccccc2)c2cc(Cl)cc([N+](=O)[O-])c2O)c1O [Compound 32] yielded a minimal effective concentration (live Fasciola hepatica) of 5 µg/mL.

For O=[N+]([O-])c1cc(Cl)cc(C(Oc2cccc(F)c2)c2cc(Cl)cc([N+](=O)[O-])c2O)c1O [Compound 34], the minimal effective concentration (live Fasciola hepatica) was 5 µg/mL.

COc1ccc(CSC(c2cc(Cl)cc([N+](=O)[O-])c2O)c2cc(Cl)cc([N+](=O)[O-])c2O)cc1 [Compound 48] showed a minimal effective concentration (live Fasciola hepatica) of 1 µg/mL.

With O=[N+]([O-])c1cc(Cl)cc(C(SCc2ccc(Cl)cc2)c2cc(Cl)cc([N+](=O)[O-])c2O)c1O [Compound 49] the minimal effective concentration (live Fasciola hepatica) was 1.5 µg/mL.

For O=[N+]([O-])c1cc(Cl)cc(C(OCc2cc(Cl)cc(Cl)c2)c2cc(Cl)cc([N+](=O)[O-])c2O)c1O [Compound 41], the minimal effective concentration (live Fasciola hepatica) was 10 µg/mL.

CC(OC(c1cc(Cl)cc([N+](=O)[O-])c1O)c1cc(Cl)cc([N+](=O)[O-])c1O)c1ccccc1 (stereo not drawn) [Compound 36] showed a minimal effective concentration (live Fasciola hepatica) of 1 µg/mL.

With O=[N+]([O-])c1cc(Cl)cc(C(=C(Cl)Cl)c2cc(Cl)cc([N+](=O)[O-])c2O)c1O [Compound 14] the “FAECAL EGG COUNT, day 7” value ([1]; single dose 0.5 mg/kg) was 0 Eggs/g faeces, the “FAECAL EGG COUNT, day 14” value ([1]; single dose 0.5 mg/kg) was 0 Eggs/g faeces and the “POST MORTEM RESULT No. of adult fluke” value ([1]; single dose 0.5 mg/kg) was 0. The “FAECAL EGG COUNT, day 7” value ([1]; single dose 2.0 mg/kg) was 60 Eggs/g faeces, the “FAECAL EGG COUNT, day 14” value ([1]; single dose 2.0 mg/kg) was 0 Eggs/g faeces and the “POST MORTEM RESULT No. of adult fluke” value ([1]; single dose 2.0 mg/kg) was 0. The “FAECAL EGG COUNT, day 7” value ([1]; single dose 12.5 mg/kg) was 0 Eggs/g faeces, the “FAECAL EGG COUNT, day 14” value ([1]; single dose 12.5 mg/kg) was 0 Eggs/g faeces and the “POST MORTEM RESULT No. of adult fluke” value ([1]; single dose 12.5 mg/kg) was 0. The “effective against immature fluke” value (immature fluke; 10 mg/kg) was 90.6% and the “effective against immature fluke” value (immature fluke; 15 mg/kg) was 100%.

Work on O=[N+]([O-])c1cc(Cl)cc(C(OCc2ccc(Cl)cc2)c2cc(Cl)cc([N+](=O)[O-])c2O)c1O [Compound 38] yielded a minimal effective concentration (live Fasciola hepatica) of 1 µg/mL.

O=[N+]([O-])c1ccc(SC(c2cc(Cl)cc([N+](=O)[O-])c2O)c2cc(Cl)cc([N+](=O)[O-])c2O)cc1 [Compound 52] showed a minimal effective concentration (live Fasciola hepatica) of 1 µg/mL.

O=[N+]([O-])c1cccc(COC(c2cc(Cl)cc([N+](=O)[O-])c2O)c2cc(Cl)cc([N+](=O)[O-])c2O)c1 [Compound 39] showed a minimal effective concentration (live Fasciola hepatica) of 0.5 µg/mL.

Work on CC(=O)Nc1ccc(OC(c2cc(Cl)cc([N+](=O)[O-])c2O)c2cc(Cl)cc([N+](=O)[O-])c2O)cc1 [Compound 44] yielded a minimal effective concentration (live Fasciola hepatica) of 5 µg/mL.
